Laboratory results as given in patent US7482355B2, “Pyrimidine derivatives as modulators of chemokine receptor activity” (AstraZeneca AB, priority 2002, dated 2009).

target: T1, hrCXCR2 (Homo sapiens, UniProt P25025); assay: Ligand binding assay, [125I]IL-8 displacement from membranes of HEK 293 cells expressing hrCXCR2; conditions: [125I]IL-8 (~50 pM), HEK 293 hrCXCR2 membranes, 1.5 hours at room temperature
T1 construct: expressed in transfected cells; host or cells: HEK 293 cells (ECACC No. 85120602), membranes of the highest expressing clone
T1 sequence (P25025 1-360): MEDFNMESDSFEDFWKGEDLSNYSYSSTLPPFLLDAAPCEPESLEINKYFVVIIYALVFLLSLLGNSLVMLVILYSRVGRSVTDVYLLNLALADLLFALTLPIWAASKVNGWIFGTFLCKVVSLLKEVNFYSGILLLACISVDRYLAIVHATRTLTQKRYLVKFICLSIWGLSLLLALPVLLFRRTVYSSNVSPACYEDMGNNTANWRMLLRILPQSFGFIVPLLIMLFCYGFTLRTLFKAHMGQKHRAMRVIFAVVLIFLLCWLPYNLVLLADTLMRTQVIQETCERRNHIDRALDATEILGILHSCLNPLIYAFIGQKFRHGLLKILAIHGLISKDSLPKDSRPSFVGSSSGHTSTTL
Text: [^125I]IL-8 (human, recombinant) was purchased from Amersham, U.K. with a specific activity of 2,000 Ci/mmol. All other chemicals were of analytical grade. High levels of hrCXCR2 were expressed in HEK 293 cells (human embryo kidney 293 cells ECACC No. 85120602) (Lee et al. (1992) J. Biol. Chem. 267 pp16283-16291). hrCXCR2 cDNA was amplified and cloned from human neutrophil mRNA. The DNA was cloned into PCRScript (Stratagene) and clones were identified using DNA. The coding sequence was sub-cloned into the eukauyotic expression vector RcCMV (Invitrogen). Plasmid DNA was prepared using Quiagen Megaprep 2500 and transfected into HEK 293 cells using Lipofectamine reagent (Gibco BRL). Cells of the highest expressing clone were harvested in phosphate-buffered saline containing 0.2% (w/v) ethylenediaminetetraacetic acid (EDTA) and centrifuged (200 g, 5 min.). The cell pellet was resuspended in ice cold homogenisation buffer [10 mM HEPES (pH 7.4), 1 mM dithiothreitol, 1 mM EDTA and a panel of protease inhibitors (1 mM phenyl methyl sulphonyl fluoride, 2 μg/ml soybean trypsin inhibitor, 3 mM benzamidine, 0.5 μg/ml leupeptin and 100 μg/ml bacitracin)] and the cells left to swell for 10 minutes. The cell preparation was disrupted using a hand held glass mortar/PTFE pestle homogeniser and cell membranes harvested by centrifugation (45 minutes, 100,000 g, 4° C.). The membrane preparation was stored at −70° C. in homogenisation buffer supplemented with Tyrode's salt solution (137 mM NaCl, 2.7 mM KCl, 0.4 mM NaH2PO4), 0.1% (w/v) gelatin and 10% (v/v) glycerol.
All assays were performed in a 96-well MultiScreen 0.45 μm filtration plates (Millipore, U.K.). Each assay contained ˜50 pM [^125I]IL-8 and membranes (equivalent to ˜200,000 cells) in assay buffer [Tyrode's salt solution supplemented with 10 mM HEPES (pH 7.4), 1.8 mM CaCl2, 1 mM MgCl2, 0.125 mg/ml bacitracin and 0.1% (w/v) gelatin]. […] The backing plate was removed from the MultiScreen plate assembly, the filters dried at room temperature, punched out and then counted on a Cobra γ-counter.

Row | SMILES | IC50
1 | C[C@H](CO)Nc1cc(O)nc(SCc2cccc(Cl)c2)n1 [Example 3, 2-[(3-Chlorobenzyl)thio]-6-{[(1R)-2-hydroxy-1-methylethyl]amino}-4-pyrimidinol] | 794 nM
2 | C[C@H](CO)Nc1nc(SCc2cccc(F)c2F)nc(O)c1SCc1ncon1 [Example 26, 2-[[(2,3-Difluorophenyl)methyl]thio]-6-[[(1R)-2-hydroxy-1-methylethyl]amino]-5-[(1,2,4-oxadiazol-3-ylmethyl)thio]-4-pyrimidinol] | 100 nM
3 | C[C@H](CO)Nc1nc(SCc2cccc(F)c2)nc(O)c1F [Example 33, 2-[(3-fluorobenzyl)thio]-5-fluoro-6-{[(1R)-2-hydroxy-1-methylethyl]amino}pyrimidin-4-ol] | 31.6 nM
